Measurements from ChEMBL document CHEMBL4043274, “4-Hydroxy-2-pyridones: Discovery and evaluation of a novel class of antibacterial agents targeting DNA synthesis” (Bioorg Med Chem Lett, 2017).
Converted amounts (≈) assume the structure as drawn. The source made the active and inactive calls. The calls are words filed in the database; no cut-off is given here.

Legend:
Format in all cases: functional
Escherichia coli [1] = assay: Antibacterial activity against Escherichia coli BAS849 by CLSI M100-S17 protocol based method
Escherichia coli [2] = assay: Antibacterial activity against wild-type Escherichia coli ATCC 25922 by CLSI M100-S17 protocol based method
Staphylococcus aureus [3] = assay: Antibacterial activity against multidrug resistant Staphylococcus aureus by broth microdilution assay
Staphylococcus aureus [4] = assay: Inhibition of DNA synthesis in wild-type Staphylococcus aureus ATCC 29213 at MIC
Staphylococcus aureus [5] = assay: Antibacterial activity against wild-type Staphylococcus aureus ATCC 29213 by CLSI M100-S17 protocol based method
Staphylococcus aureus [6] = assay: Inhibition of protein synthesis in wild-type Staphylococcus aureus ATCC 29213 at 1.6 ug/ml
Escherichia coli [7] = assay: Antibacterial activity against quinolone resistant Escherichia coli SKM18 by CLSI M100-S17 protocol based method
Escherichia coli [8] = assay: Ratio of MIC in presence to absence of HSA for wild-type Escherichia coli ATCC 25922
[9] = Selectivity ratio of MIC for wild-type Escherichia coli ATCC 25922 to MIC for Escherichia coli BAS849
Escherichia coli [10] = assay: Antibacterial activity against wild-type Escherichia coli ATCC 25922 in presence of human serum albumin by CLSI M100-S17 protocol based method
Acinetobacter baumannii = assay: Antibacterial activity against Acinetobacter baumannii ATCC BAA-747 by CLSI M100-S17 protocol based method
Klebsiella pneumoniae = assay: Antibacterial activity against Klebsiella pneumoniae ATCC 35657 by CLSI M100-S17 protocol based method
Escherichia coli [11] = assay: Antibacterial activity against wild-type Escherichia coli ATCC 25922 infected in iv dosed CD-1 mouse assessed as mouse survival treated for 1 hr followed by reinfection with bacteria measured at 96 hrs post infection; conditions: ATCC 25922, iv, read-out: PD50
[12] = Selectivity ratio of MIC for quinolone resistant Escherichia coli SKM18 to MIC for wild-type Escherichia coli ATCC 25922

Structure (SMILES)	MIC (Escherichia coli [1]) [mg/L]	MIC (Escherichia coli [2]) [mg/L]	MIC (Escherichia coli [7]) [mg/L]	Ratio (Escherichia coli [8])	MIC (Escherichia coli [10]) [mg/L]	also measured
CCc1c(-c2ccc(N(C)C)cc2C)[nH]c(=O)c(C(=O)O)c1O	6.3 (≈ 19.9 µM)	> 12.5				
O=C(O)c1cn(C2CC2)c2cc(N3CCNCC3)c(F)cc2c1=O [CIPROFLOXACIN]						MIC (Staphylococcus aureus [3]): 0.125 to 64 mg/L (≈ 0.377 to 193 µM); MIC50 (Staphylococcus aureus [3]): 64 mg/L (≈ 193 µM); MIC90 (Staphylococcus aureus [3]): > 64 mg/L
CCc1c(O)c(C(=O)O)c(=O)n(Cc2ccccc2)c1-c1ccc(N(C)C)cc1		> 12.5				inhibition (Staphylococcus aureus [4]): Active; MIC (Staphylococcus aureus [5]): 1.6 mg/L (≈ 4.08 µM); inhibition (Staphylococcus aureus [6]): Active
CCc1c(-c2ccc(N3CCCC3)cc2)[nH]c(=O)c(C(=O)O)c1O	0.03 (≈ 0.0914 µM)	1.6 (≈ 4.87 µM)	> 62.5	>30 - 40	> 62.5	Selectivity ratio [9]: > 50
CCc1c(-c2ccc(N3CCC(CNC)C3)cc2)[nH]c(=O)c(C(=O)O)c1O (stereo not drawn)	0.39 (≈ 1.05 µM)	1.6 (≈ 4.31 µM)	7.8 (≈ 21 µM)	4 - 8	6.3	MIC (Acinetobacter baumannii): 12.5 mg/L (≈ 33.7 µM); MIC (Klebsiella pneumoniae): 6.3 mg/L (≈ 17 µM)
CCOC(=O)c1c(O)c(CC)c(-c2ccc(N(C)C)cc2)[nH]c1=O	> 12.5	> 12.5				
CCc1c(-c2ccc(N(C)C)c(C)c2)[nH]c(=O)c(C(=O)O)c1O	1.6 (≈ 5.06 µM)	> 12.5				
CCc1c(-c2ccc(Cl)cc2)[nH]c(=O)c(C(=O)O)c1O	1.6 (≈ 5.45 µM)	> 12.5				
COc1c(N2C[C@@H]3CCCN[C@@H]3C2)c(F)cc2c(=O)c(C(=O)O)cn(C3CC3)c12 [MOXIFLOXACIN]						MIC50 (Staphylococcus aureus [3]): 4 mg/L (≈ 9.96 µM); MIC90 (Staphylococcus aureus [3]): 32 mg/L (≈ 79.7 µM); ED50 (Escherichia coli [11]): < 3 mg/kg
CN(C)c1ccc(-c2[nH]c(=O)c(C(=O)O)c(O)c2C2CC2)cc1	1.56 (≈ 4.96 µM)	> 62.5				
CCc1c(-c2ccc(N3CC4CC4(N)C3)cc2)[nH]c(=O)c(C(=O)O)c1O (stereo not drawn)	0.04 (≈ 0.113 µM)	1.6 (≈ 4.5 µM)	6.3 (≈ 17.7 µM)		> 12.5	MIC (Acinetobacter baumannii): 6.3 mg/L (≈ 17.7 µM); MIC (Klebsiella pneumoniae): 3.1 mg/L (≈ 8.72 µM)
CCc1c(-c2ccc(N(C)C)c(OC)c2)[nH]c(=O)c(C(=O)O)c1O	6.3 (≈ 19 µM)	> 12.5				
CCc1c(-c2ccc(N3CCC(C(C)(C)N)C3)cc2)[nH]c(=O)c(C(=O)O)c1O (stereo not drawn)	0.78 (≈ 2.02 µM)	3.1 (≈ 8.04 µM)	0.78 (≈ 2.02 µM)	4 - 8	12.5	MIC (Acinetobacter baumannii): > 12.5 mg/L; MIC (Klebsiella pneumoniae): 6.3 mg/L (≈ 16.3 µM)
CCc1c(-c2ccc(N(C)C)cc2OC)[nH]c(=O)c(C(=O)O)c1O	6.3 (≈ 19 µM)	> 12.5				
CCc1cc(C(=O)O)c(=O)[nH]c1-c1ccc(N(C)C)cc1	0.03 (≈ 0.105 µM)	0.78 (≈ 2.72 µM)	> 62.5			
CCc1cc(C(=O)O)c(=O)n(C)c1-c1ccc(N(C)C)cc1	1.6 (≈ 5.33 µM)	> 62.5	> 62.5			
CCc1c(-c2ccc(N3CCC(C)(CN)C3)cc2)[nH]c(=O)c(C(=O)O)c1O (stereo not drawn)	0.39 (≈ 1.05 µM)	1.6 (≈ 4.31 µM)	6.3 (≈ 17 µM)	4 - 8		
CC(C)c1c(-c2ccc(N(C)C)cc2)[nH]c(=O)c(C(=O)O)c1O	0.12 (≈ 0.379 µM)	12.5 (≈ 39.5 µM)	> 62.5			
CCc1c(-c2ccc(N3CC(N)C4(CC4)C3)cc2)[nH]c(=O)c(C(=O)O)c1O (stereo not drawn)	0.78 (≈ 2.11 µM)	3.1 (≈ 8.39 µM)	6.3 (≈ 17.1 µM)			
CCc1c(-c2ccc(C)cc2)[nH]c(=O)c(C(=O)O)c1O	0.78 (≈ 2.85 µM)	> 12.5				

Structure (SMILES)	MIC (Escherichia coli [1]) [mg/L]	MIC (Escherichia coli [2]) [mg/L]	MIC (Escherichia coli [7]) [mg/L]	Ratio (Escherichia coli [8])	MIC (Escherichia coli [10]) [mg/L]	also measured
CCc1c(-c2ccc(N3CCC(N4CCCC4)C3)cc2)[nH]c(=O)c(C(=O)O)c1O (stereo not drawn)	0.19 (≈ 0.478 µM)	1.6 (≈ 4.03 µM)	6.3 (≈ 15.9 µM)	<4	3.1	MIC (Acinetobacter baumannii): 3.1 mg/L (≈ 7.8 µM); Selectivity ratio [12]: < 4; MIC (Klebsiella pneumoniae): 1.6 mg/L (≈ 4.03 µM)
CCc1c(-c2ccc(N3CCC(C4(N(C)C)CC4)C3)cc2)[nH]c(=O)c(C(=O)O)c1O (stereo not drawn)	0.04 (≈ 0.0972 µM)	6.3 (≈ 15.3 µM)	> 12.5	4 - 8		MIC (Acinetobacter baumannii): > 25 mg/L; MIC (Klebsiella pneumoniae): 12.5 mg/L (≈ 30.4 µM)
CCc1c(-c2ccc(N3CCCCC3)cc2)[nH]c(=O)c(C(=O)O)c1O	0.39 (≈ 1.14 µM)	> 62.5		>30		Selectivity ratio [9]: > 50
CCc1c(-c2ccc(OC)cc2)[nH]c(=O)c(C(=O)O)c1O	≤ 0.2	7.8 (≈ 27 µM)				
CCc1c(-c2ccc(N3CCNCC3)cc2)[nH]c(=O)c(C(=O)O)c1O	3.1 (≈ 9.03 µM)	6.3 (≈ 18.3 µM)	62.5 (≈ 182 µM)	<3	15.6	
CCc1c(-c2ccc(N(CC)CC)cc2)[nH]c(=O)c(C(=O)O)c1O	0.24 (≈ 0.726 µM)	> 62.5				Selectivity ratio [9]: > 50
CCc1c(-c2ccc(N3CCC(N(C)C)C3)cc2)[nH]c(=O)c(C(=O)O)c1O (stereo not drawn)	0.19 (≈ 0.512 µM)	0.78 (≈ 2.1 µM)	3.1 (≈ 8.35 µM)	<4	3.1	MIC (Acinetobacter baumannii): 1.6 mg/L (≈ 4.31 µM); Selectivity ratio [12]: < 4; MIC (Klebsiella pneumoniae): 1.6 mg/L (≈ 4.31 µM)
CCc1c(-c2ccc(N3CCC(C4(N)CCC4)C3)cc2)[nH]c(=O)c(C(=O)O)c1O (stereo not drawn)	0.39 (≈ 0.981 µM)	1.6 (≈ 4.03 µM)	0.19 (≈ 0.478 µM)	4 - 8	12.5	MIC (Acinetobacter baumannii): 3.1 mg/L (≈ 7.8 µM); MIC (Klebsiella pneumoniae): 1.6 mg/L (≈ 4.03 µM)
Cc1c(-c2ccc(N(C)C)cc2)[nH]c(=O)c(C(=O)O)c1O	0.39 (≈ 1.35 µM)	31.3 (≈ 109 µM)	3.1 (≈ 10.8 µM)			
CN(C)c1ccc(-c2[nH]c(=O)c(C(=O)O)c(O)c2C2CCCCC2)cc1	6.25 (≈ 17.5 µM)	> 62.5				
CCc1c(-c2ccc(N3CC=CC3)cc2)[nH]c(=O)c(C(=O)O)c1O	0.01 (≈ 0.0306 µM)	0.78 (≈ 2.39 µM)	> 62.5		32.2	Selectivity ratio [9]: > 50
CN(C)c1ccc(-c2[nH]c(=O)c(C(=O)O)c(O)c2Cc2ccccc2)cc1	> 12.5	> 12.5				
CCc1c(-c2ccc(N3C[C@@H]4[C@H](C3)[C@H]4N(C)C)cc2)[nH]c(=O)c(C(=O)O)c1O	0.25 (≈ 0.652 µM)	6.3 (≈ 16.4 µM)	12.5 (≈ 32.6 µM)	4 - 8	> 12.5	MIC (Acinetobacter baumannii): > 12.5 mg/L
CCn1cc(C(=O)O)c(=O)cc1-c1ccc(N(C)C)cc1	0.39 (≈ 1.36 µM)	6.3 (≈ 22 µM)	> 62.5			
CCc1c(-c2ccc(N(C)C)cc2F)[nH]c(=O)c(C(=O)O)c1O	≤ 0.2	> 12.5				
CCc1c(-c2ccc(N(C)C)cc2)[nH]c(=O)c(C(=O)O)c1OC	12.5 (≈ 39.5 µM)	> 12.5				
CCc1c(-c2ccc(N3CCC(C4(N)CC4)C3)cc2)[nH]c(=O)c(C(=O)O)c1O (stereo not drawn)	0.39 (≈ 1.02 µM)	1.6 (≈ 4.17 µM)		4 - 8	12.5	MIC (Acinetobacter baumannii): 3.1 mg/L (≈ 8.08 µM); MIC (Klebsiella pneumoniae): 3.1 mg/L (≈ 8.08 µM)
CCc1c(-c2ccc(N(C)C)c(F)c2)[nH]c(=O)c(C(=O)O)c1O	0.39 (≈ 1.22 µM)	7.8 (≈ 24.4 µM)				
CCc1c(-c2ccc(N3C[C@@H]4[C@H](C3)[C@H]4NC)cc2)[nH]c(=O)c(C(=O)O)c1O	0.049 (≈ 0.133 µM)	0.39 (≈ 1.06 µM)	3.1 (≈ 8.39 µM)	4 - 8	3.1	MIC (Acinetobacter baumannii): 1.6 mg/L (≈ 4.33 µM); MIC (Klebsiella pneumoniae): 0.39 mg/L (≈ 1.06 µM)
CCc1c(-c2ccc(N(C)C)cc2)n(Cc2ccccc2)c(=O)c2c(O)cc(=O)oc12		> 12.5				MIC (Staphylococcus aureus [5]): 3.1 mg/L (≈ 7.44 µM)
